Assay results from patent US4923868A, “8-fluoro and 7,8,10-trifluoro-9-(substituted)-6-oxo-6H-benzo(C)quinolizine-5-carboxyl ic acids” (American Cyanamid Company, priority 1989, dated 1990).
≈ marks a conversion by molar mass, not a printed value. Where two headings read alike, the source gives them in different places.

Assays:
Experiment in all cases: In vitro antibacterial spectrum, agar plate dilution (MIC)
Type in all cases: cell-based
[1] = tested on: Proteus rettgeri; conditions: Providencia rettgeri; Proteus rettgeri IO 83-21; Mueller-Hinton agar, 10^4 CFU, 18 h, 35° C
Protocol: (§1) The in vitro antimicrobial spectrum of the compounds of the invention were determined by the agar plate dilution method with Mueller-Hinton agar and an inoculum of each test organism of approximately 10^4 colony forming units delivered by the Steers replicating device. The minimal inhibitory concentration (MIC) in mcg/ml is defined as the lowest concentration of test compound that inhibited visible growth after 18 hours incubation at 35° C.

[2] = tested on: Staphylococcus aureus; conditions: Mueller-Hinton agar, 10^4 CFU, 18 h, 35° C
Protocol: as §1

[3] = tested on: Escherichia coli; conditions: 10^4 CFU, 35° C
Protocol: as §1

[4] = tested on: Streptococcus faecalis; conditions: Mueller-Hinton agar, 10^4 CFU, 18 h, 35° C
Protocol: as §1

[5] = tested on: Pseudomonas aeruginosa; conditions: Mueller-Hinton agar, 10^4 CFU, 18 h, 35° C
Protocol: as §1

[6] = tested on: Klebsiella nneumoniae; conditions: Mueller-Hinton agar, 10^4 CFU, 18 h, 35° C
Protocol: as §1

[7] = tested on: Enterobacter cloacae; conditions: 18 h, 10^4 CFU, 35° C
Protocol: as §1

[8] = tested on: Providencia stuartii; conditions: Providencia stuartii CMC 83-3; Mueller-Hinton agar, 10^4 CFU, 18 h, 35° C
Protocol: as §1

[9] = tested on: Serratia marcescens; conditions: 18 h, 10^4 CFU, 35° C
Protocol: as §1

[10] = tested on: Citrobacter diversus; conditions: Citrobacter koseri; Citrobacter diversus K 82-24; Mueller-Hinton agar, 10^4 CFU, 18 h, 35° C
Protocol: as §1

[11] = tested on: Morganella morganii; conditions: 18 h, 10^4 CFU, 35° C
Protocol: as §1

## CN1CCN(c2cc3c(cc2F)c(=O)c(C(=O)O)c2ccccn23)CC1 [Example 6, 8-Fluoro-9-(4-methyl-1-piperazinyl)-6-oxo-6H-benzo[c]quinolizine-5-carboxylic acid]
[1]
  MIC: 1 mg/L (≈ 2.81 µM)
[2]; ATCC25913, Staphylococcus aureus ATCC 25913, read-out: MIC
  MIC: > 16 mg/L
[2]; Staphylococcus aureus CMC 83-131
  MIC: > 16 mg/L
[2]; Staphylococcus aureus K 82-26
  MIC: > 16 mg/L
[2]; Staphylococcus aureus VGH 84-47, read-out: MIC
  MIC: > 16 mg/L
[3]; 18 h, Escherichia coli CMC 84-50, Mueller-Hinton agar
  MIC: 2 mg/L (≈ 5.63 µM)
[3]; 18 h, Escherichia coli D 21, Mueller-Hinton agar
  MIC: 4 mg/L (≈ 11.3 µM)
[3]; 18 h, Escherichia coli D 22, Mueller-Hinton agar
  MIC: 2 mg/L (≈ 5.63 µM)
[3]; 18 h, Escherichia coli MOR 84-20, Mueller-Hinton agar
  MIC: 2 mg/L (≈ 5.63 µM)
[3]; 18 h, Escherichia coli VGH 84-19, Mueller-Hinton agar
  MIC: 4 mg/L (≈ 11.3 µM)
[3]; ATCC25922, 18 h, Escherichia coli ATCC 25922, Mueller-Hinton agar
  MIC: 4 mg/L (≈ 11.3 µM)
[4]; Enterococcus faecalis, Streptococcus faecalis VCI 85-30, read-out: MIC
  MIC: > 16 mg/L
[4]; Streptococcus faecalis CMC 83-120
  MIC: > 16 mg/L
[4]; Streptococcus faecalis VGH 84-69
  MIC: > 16 mg/L
[5]; Pseudomonas aeruginosa CMC 83-20
  MIC: > 16 mg/L
[5]; Pseudomonas aeruginosa K 84-16, read-out: MIC
  MIC: > 16 mg/L
[5]; Pseudomonas aeruginosa VGH 84-3
  MIC: > 16 mg/L
[6]; Klebsiella nneumoniae IO 83-5
  MIC: 8 mg/L (≈ 22.5 µM)
[6]; Klebsiella nneumoniae MOR 84-24, read-out: MIC
  MIC: 8 mg/L (≈ 22.5 µM)
[6]; Klebsiella oneumoniae CMC 84-31
  MIC: 8 mg/L (≈ 22.5 µM)
[7]; Enterobacter cloacae K 84-10, Mueller-Hinton agar
  MIC: 2 mg/L (≈ 5.63 µM)
[7]; Enterobacter cloacae MOR 84-30, Mueller-Hinton agar
  MIC: 16 mg/L (≈ 45 µM)
[7]; Enterobacter cloacae VGH 84-39, Mueller-Hinton agar
  MIC: 2 mg/L (≈ 5.63 µM)
[8]
  MIC: > 16 mg/L
[9]; Serratia marcescens CMC 83-74, Mueller-Hinton agar
  MIC: > 16 mg/L
[9]; Serratia marcescens IO 83-63, Mueller-Hinton agar
  MIC: 4 mg/L (≈ 11.3 µM)
[9]; Serratia marcescens MOR 84-41, Mueller-Hinton agar
  MIC: 2 mg/L (≈ 5.63 µM)
[10]
  MIC: 4 mg/L (≈ 11.3 µM)
[11]; Morganella morganii CMC 84-38, Mueller-Hinton agar
  MIC: 0.5 mg/L (≈ 1.41 µM)
[11]; Morganella morganii VGH 84-12, Mueller-Hinton agar
  MIC: 4 mg/L (≈ 11.3 µM)
[11]; Moroanella morganii MOR 84-45, Mueller-Hinton agar
  MIC: 0.5 mg/L (≈ 1.41 µM)
